According to patent US20240174618A1, “SUBSTITUTED (2-HETEROARYLOXYPHENYL)SULFONATES, SALTS THEREOF AND THEIR USE AS HERBICIDAL AGENTS” (Bayer Aktiengesellschaft, priority 2021, published 2024):

Columns and labels:
Assay type in all cases: in vivo
Veronica persica (VERPE) [1] = assay: B. Herbicidal post-emergence efficacy, VERPE
Procedure, shortened: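 Weeds grown in sandy loam in greenhouse and sprayed at the one-leaf stage, 2–3 weeks after sowing, with WP or EC formulations plus 0.5% additive at 600 L/ha water. Injury rated visually versus untreated controls after about 3 weeks (100% = dead, 0% = like control); rates up to 1280 g/ha.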

Poa annua (POAAN) = assay: A. Herbicidal pre-emergence efficacy, POAAN
Procedure, shortened: (§1)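 Applied before emergence onto covering soil at rates of 1280 g/ha or less, using 600 L/ha spray water with 0.5% additive. Scoring: visual % efficacy after ~3 weeks, greenhouse.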

Veronica persica (VERPE) [2] = assay: A. Herbicidal pre-emergence efficacy, VERPE; settings: for Pre-emergence efficacy against VERPE: dosage 80 g/ha
Procedure, shortened: as §1

Stellaria media (STEME) = assay: A. Herbicidal pre-emergence efficacy, STEME
Procedure, shortened: as §1

Viola tricolor (VIOTR) = assay: C. Herbicidal pre-emergence efficacy, VIOTR
Procedure, shortened: (§2)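 Pre-emergence test: formulated compounds sprayed as aqueous suspension or emulsion with 0.5% additive at 600 l/ha onto soil covering sown seeds, at rates corresponding to 320 g/ha or less. After about 3 weeks in greenhouse, efficacy scored visually as percent versus untreated controls (100% = plants dead).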

Setaria viridis (SETVI) = assay: C. Herbicidal pre-emergence efficacy, SETVI; settings: scored after about 3 weeks
Procedure, shortened: as §2

[3] = system: Abutilon theophrasti (ABUTH); assay: C. Herbicidal pre-emergence efficacy, ABUTH; settings: scored after about 3 weeks
Procedure, shortened: as §2

Veronica persica (VERPE) [4] = assay: C. Herbicidal pre-emergence efficacy, VERPE; settings: scored after about 3 weeks
Procedure, shortened: as §2

O=S(=O)(CCCC(F)(F)F)Oc1c(F)cccc1Oc1ncc(Br)cn1 [Example I-41]
Post-emergence efficacy against VERPE (Veronica persica (VERPE) [1]; 80 g/ha): 90%
Post-emergence efficacy against VERPE (Veronica persica (VERPE) [1]; 320 g/ha): 90%
Post-emergence efficacy against VERPE (Veronica persica (VERPE) [1]; 1280 g/ha): 90%
Pre-emergence efficacy against POAAN (Poa annua (POAAN); dosage 80 g/ha): 100%
Pre-emergence efficacy against POAAN (Poa annua (POAAN); dosage 320 g/ha): 100%
Pre-emergence efficacy against POAAN (Poa annua (POAAN); dosage 1280 g/ha): 100%
Pre-emergence efficacy against VERPE in % (Veronica persica (VERPE) [2]; 320 g/ha): 100%
Pre-emergence efficacy against VERPE in % (Veronica persica (VERPE) [2]; 1280 g/ha): 100%
Pre-emergence efficacy against VERPE (Veronica persica (VERPE) [2]): 90%
Pre-emergence efficacy against STEME (Stellaria media (STEME); dosage 80 g/ha): 100%
Pre-emergence efficacy against STEME (Stellaria media (STEME); dosage 320 g/ha): 100%
Pre-emergence efficacy against STEME (Stellaria media (STEME); dosage 1280 g/ha): 100%
Pre-emergence efficacy against VIOTR in % (Viola tricolor (VIOTR); application rate 80 g/ha): 100%
Pre-emergence efficacy against VIOTR in % (Viola tricolor (VIOTR); application rate 320 g/ha): 100%
Pre-emergence efficacy against SETVI (Setaria viridis (SETVI); 80 g/ha): 100%
Pre-emergence efficacy against SETVI (Setaria viridis (SETVI); 320 g/ha): 100%
Pre-emergence efficacy against ABUTH ([3]; 80 g/ha): 100%
Pre-emergence efficacy against ABUTH ([3]; 320 g/ha): 100%
Pre-emergence efficacy against VERPE (Veronica persica (VERPE) [4]; 80 g/ha): 100%
Pre-emergence efficacy against VERPE (Veronica persica (VERPE) [4]; 320 g/ha): 100%

O=S(=O)(CC1CC(F)(F)C1)Oc1c(F)cccc1Oc1ncc(Cl)cn1 [Example I-53]
Post-emergence efficacy against VERPE (Veronica persica (VERPE) [1]; 80 g/ha): 90%
Post-emergence efficacy against VERPE (Veronica persica (VERPE) [1]; 320 g/ha): 90%
Post-emergence efficacy against VERPE (Veronica persica (VERPE) [1]; 1280 g/ha): 90%
Pre-emergence efficacy against POAAN (Poa annua (POAAN); dosage 80 g/ha): 100%
Pre-emergence efficacy against POAAN (Poa annua (POAAN); dosage 320 g/ha): 100%
Pre-emergence efficacy against POAAN (Poa annua (POAAN); dosage 1280 g/ha): 100%
Pre-emergence efficacy against VERPE in % (Veronica persica (VERPE) [2]; 320 g/ha): 100%
Pre-emergence efficacy against VERPE in % (Veronica persica (VERPE) [2]; 1280 g/ha): 100%
Pre-emergence efficacy against VERPE (Veronica persica (VERPE) [2]): 100%
Pre-emergence efficacy against STEME (Stellaria media (STEME); dosage 80 g/ha): 100%
Pre-emergence efficacy against STEME (Stellaria media (STEME); dosage 320 g/ha): 100%
Pre-emergence efficacy against STEME (Stellaria media (STEME); dosage 1280 g/ha): 100%
Pre-emergence efficacy against VIOTR in % (Viola tricolor (VIOTR); application rate 80 g/ha): 100%
Pre-emergence efficacy against VIOTR in % (Viola tricolor (VIOTR); application rate 320 g/ha): 100%
Pre-emergence efficacy against SETVI (Setaria viridis (SETVI); 80 g/ha): 100%
Pre-emergence efficacy against SETVI (Setaria viridis (SETVI); 320 g/ha): 100%
Pre-emergence efficacy against ABUTH ([3]; 80 g/ha): 100%
Pre-emergence efficacy against ABUTH ([3]; 320 g/ha): 100%
Pre-emergence efficacy against VERPE (Veronica persica (VERPE) [4]; 80 g/ha): 100%
Pre-emergence efficacy against VERPE (Veronica persica (VERPE) [4]; 320 g/ha): 100%

O=S(=O)(CCCC(F)(F)C(F)(F)F)Oc1c(F)cccc1Oc1ncc(Cl)cn1 [Example I-68]
Post-emergence efficacy against VERPE (Veronica persica (VERPE) [1]; 80 g/ha): 100%
Post-emergence efficacy against VERPE (Veronica persica (VERPE) [1]; 320 g/ha): 100%
Post-emergence efficacy against VERPE (Veronica persica (VERPE) [1]; 1280 g/ha): 100%
Pre-emergence efficacy against POAAN (Poa annua (POAAN); dosage 320 g/ha): 90%
Pre-emergence efficacy against POAAN (Poa annua (POAAN); dosage 1280 g/ha): 100%
Pre-emergence efficacy against VERPE in % (Veronica persica (VERPE) [2]; 320 g/ha): 100%
Pre-emergence efficacy against VERPE in % (Veronica persica (VERPE) [2]; 1280 g/ha): 100%
Pre-emergence efficacy against STEME (Stellaria media (STEME); dosage 320 g/ha): 100%
Pre-emergence efficacy against STEME (Stellaria media (STEME); dosage 1280 g/ha): 100%
Pre-emergence efficacy against VIOTR in % (Viola tricolor (VIOTR); application rate 80 g/ha): 100%
Pre-emergence efficacy against VIOTR in % (Viola tricolor (VIOTR); application rate 320 g/ha): 100%
Pre-emergence efficacy against SETVI (Setaria viridis (SETVI); 320 g/ha): 100%
Pre-emergence efficacy against ABUTH ([3]; 80 g/ha): 100%
Pre-emergence efficacy against ABUTH ([3]; 320 g/ha): 100%
Pre-emergence efficacy against VERPE (Veronica persica (VERPE) [4]; 80 g/ha): 90%
Pre-emergence efficacy against VERPE (Veronica persica (VERPE) [4]; 320 g/ha): 90%

O=S(=O)(CCC(F)=C(F)F)Oc1c(Cl)cccc1Oc1ncc(Cl)cn1 [Example I-73]
Post-emergence efficacy against VERPE (Veronica persica (VERPE) [1]; 80 g/ha): 100%
Post-emergence efficacy against VERPE (Veronica persica (VERPE) [1]; 320 g/ha): 100%
Post-emergence efficacy against VERPE (Veronica persica (VERPE) [1]; 1280 g/ha): 100%
Pre-emergence efficacy against POAAN (Poa annua (POAAN); dosage 320 g/ha): 90%
Pre-emergence efficacy against POAAN (Poa annua (POAAN); dosage 1280 g/ha): 100%
Pre-emergence efficacy against VERPE in % (Veronica persica (VERPE) [2]; 1280 g/ha): 100%
Pre-emergence efficacy against STEME (Stellaria media (STEME); dosage 320 g/ha): 100%
Pre-emergence efficacy against STEME (Stellaria media (STEME); dosage 1280 g/ha): 100%
Pre-emergence efficacy against VIOTR in % (Viola tricolor (VIOTR); application rate 320 g/ha): 100%
Pre-emergence efficacy against SETVI (Setaria viridis (SETVI); 320 g/ha): 100%
Pre-emergence efficacy against ABUTH ([3]; 320 g/ha): 90%
Pre-emergence efficacy against VERPE (Veronica persica (VERPE) [4]; 320 g/ha): 80%

Cc1cccc(Oc2ncc(Cl)cn2)c1OS(=O)(=O)CC1CC(F)(F)C1 [Example I-74]
Post-emergence efficacy against VERPE (Veronica persica (VERPE) [1]; 80 g/ha): 100%
Post-emergence efficacy against VERPE (Veronica persica (VERPE) [1]; 320 g/ha): 100%
Post-emergence efficacy against VERPE (Veronica persica (VERPE) [1]; 1280 g/ha): 100%
Pre-emergence efficacy against POAAN (Poa annua (POAAN); dosage 320 g/ha): 100%
Pre-emergence efficacy against POAAN (Poa annua (POAAN); dosage 1280 g/ha): 100%
Pre-emergence efficacy against VERPE in % (Veronica persica (VERPE) [2]; 320 g/ha): 100%
Pre-emergence efficacy against VERPE in % (Veronica persica (VERPE) [2]; 1280 g/ha): 100%
Pre-emergence efficacy against VERPE (Veronica persica (VERPE) [2]): 90%
Pre-emergence efficacy against STEME (Stellaria media (STEME); dosage 320 g/ha): 90%
Pre-emergence efficacy against STEME (Stellaria media (STEME); dosage 1280 g/ha): 100%
Pre-emergence efficacy against VIOTR in % (Viola tricolor (VIOTR); application rate 80 g/ha): 100%
Pre-emergence efficacy against VIOTR in % (Viola tricolor (VIOTR); application rate 320 g/ha): 100%
Pre-emergence efficacy against SETVI (Setaria viridis (SETVI); 80 g/ha): 100%
Pre-emergence efficacy against SETVI (Setaria viridis (SETVI); 320 g/ha): 100%
Pre-emergence efficacy against ABUTH ([3]; 320 g/ha): 90%
Pre-emergence efficacy against VERPE (Veronica persica (VERPE) [4]; 80 g/ha): 80%
Pre-emergence efficacy against VERPE (Veronica persica (VERPE) [4]; 320 g/ha): 100%
